Data published in US20160046616A1, “NRF2 SMALL MOLECULE INHIBITORS FOR CANCER THERAPY” (THE JOHNS HOPKINS UNIVERSITY, priority 2013, published 2016).

Experiments:
[1] = test system: A549 NRF2-ARE-Fluc stable cell line; test: A549 Nrf2 assay: NRF2-ARE firefly luciferase reporter gene assay; format: cell-based; details: Homo sapiens, read-out: Potency of inhibition, A549
Excerpt: A549, the parental cell line, is a non-small-cell lung cancer (NSCLC) cell line with loss-of-function (LOF) Keap1 activity, thus NRF2 transcription factor constitutively translocates into the nucleus to activate the expression of downstream target genes of NRF2. A firefly luciferase reporter (Fluc) construct driven by a minimal promoter of NRF2-specific anti-oxidant responsive element (ARE) is stably expressed in the A549 cells. Compounds that reduce the translocation of NRF2 into the nucleus or prevent the interaction between NRF2 and ARE will lead to a decrease in luciferase activity.
The final concentration of DMSO was maintained at 0.46%. Control compounds Budesonide and Staurosporine were both added at a concentration of 2 mM and Budesonide also was added as a 1:10 titration, starting at 200 μM, to achieve dose-response. After an 18-24 hour incubation at 37° C., 95% humidity, and 5% CO2, 1 μL of 5× CellTiter-Fluor non-lytic cell viability assay reagent (Promega, Madison, Wis.) was added into the each well of the plates. The plates were then incubated for 30 minutes at room temperature before they were read on a ViewLux plate imager (Perkin Elmer, Waltham, Mass.) using an excitation wavelength of 405 nm and an emission wavelength of 525 nm.
A cell based reporter assay approach was used for the identification of agents that could inhibit Nrf2 mediated gene expression (FIG. 1). A549-ARE-luciferase cells express the luciferase gene driven by a minimal promoter and an enhancer element containing an NRF2 binding site (Antioxidant Response Element, ARE).
(§1) Representative compounds were assayed to assess the potency of inhibition in an A549 NRF2-ARE-Fluc stable cell line (A549 Nrf2 assay), in an H838 NRF2-ARE-Fluc stable cell line (H838 Nrf2 assay), and in an H1437 NRF2-ARE-Fluc stable cell line (H1437 Nrf2 assay) (see Table 3).

[2] = test system: H1437 NRF2-ARE-Fluc stable cell line; test: H1437 Nrf2 assay: NRF2-ARE firefly luciferase reporter gene assay; format: cell-based; details: Homo sapiens, NCI-H1437, H1437 NRF2-ARE-Fluc stable cell line; read-out: Potency of inhibition, H1437
Excerpt: H1437 is another NSCLC cell line with LOF Keap1 activity and constitutive translocation of NRF2 into the nucleus. A firefly luciferase reporter construct driven by a minimal promoter of NRF2-specific ARE is stably expressed in the H1437 cells. This cell line was used as a confirmation assay to make sure hits identified from primary screening and that passed counterscreen assays worked in different cell types with a constitutively active NRF2 pathway (deficiency in Keap1).
This assay was very similar to the primary assay except that the cell line was changed. […] The final concentration of DMSO was maintained at 0.46%. Control compounds Budesonide and Staurosporine were both added at a concentration of 2 mM and Budesonide was also added as a 1:10 titration, starting at 200 μM, to achieve dose-response. After an 18-24 hour incubation at 37° C., 95% humidity, and 5% CO2, 1 μL of 5× CellTiter-Fluor non-lytic cell viability assay reagent (Promega, Madison Wis.) was added into the each well of the plates. The plates were then incubated for 30 minutes at room temperature before they were read on a ViewLux plate imager (Perkin Elmer, Waltham Mass.) using an excitation wavelength of 405 nm and an emission wavelength of 525 nm.
as §1

IC50 [1] [µM] | IC50 [2] [µM] | SMILES
< 5 | > 25 | O=C(Nc1ncc(Cc2ccc(C(F)(F)F)cc2)s1)c1cccc(-c2ccccc2)n1 [Compound 61]
> 25 | > 25 | O=C(Cc1ccccc1)Nc1cccc(-c2ccc(N3CCCCC3)cc2)n1 [Compound 63]
5 to 25 | > 25 | CNc1ccc(-c2cccc(NC(=O)Cc3ccccc3)n2)cc1 [Compound 64, N-(6-(4-(methylamino)phenyl)pyridin-2-yl)-2-phenylacetamide]
5 to 25 | 5 to 25 | Cc1ccccc1C(=O)N1CCc2cc(-c3cccc(N4CCOCC4)n3)ccc21 [Compound 65]
5 to 25 | 5 to 25 | Cc1ccccc1C(=O)N1CCc2cc(-c3nc(NC(=O)CN4CCCCC4)sc3C)ccc21 [Compound 66]
5 to 25 | > 25 | Cc1cnc(NC(=O)c2ccc(-c3cccc([N+](=O)[O-])c3)o2)s1 [Compound 67]
5 to 25 | 5 to 25 | Cc1ccccc1C(=O)N(C)c1ccc(-c2cccc(NC(=O)Cc3ccccc3)n2)cc1 [Compound 68]
< 5 | < 5 | Cc1ccccc1C(=O)N1CCc2cc(-c3nc(NC(=O)CN4CCN(C(=O)OC(C)(C)C)CC4)sc3C)ccc21 [Compound 69, tert-butyl 4-(2-((5-methyl-4-(1-(2-methylbenzoyl)indolin-5-yl)thiazol-2-yl)amino)-2-oxoethyl)piperazine-1-carboxylate]
> 25 | > 25 | Cc1ccccc1C(=O)N1CCc2cc(-c3nc(NC(=O)CN4CCNCC4)sc3C)ccc21 [Compound 70, N-(5-methyl-4-(1-(2-methylbenzoyl)indolin-5-yl)thiazol-2-yl)-2-(piperazin-1-yl)acetamide]
5 to 25 | > 25 | Cc1ccccc1C(=O)Nc1ccc(-c2cccc(NC(=O)Cc3ccccc3)n2)cc1 [Compound 71]
> 25 | 5 to 25 | Cc1ccccc1C(=O)N1CCc2cc(-c3nc(NC(=O)CN4CCN(C)CC4)sc3C)ccc21 [Compound 72]
> 25 | 5 to 25 | Cc1ccccc1C(=O)N1CCc2cc(-c3nc(NC(=O)CC4CCNCC4)sc3C)ccc21 [Compound 73]
> 25 | > 25 | O=C(CCc1ccccc1)Nc1ncc(Cc2ccc(C(F)(F)F)cc2)s1 [Compound 74]
5 to 25 | 5 to 25 | Cc1ccccc1C(=O)N1CCc2cc(-c3nc(NC(=O)CC4CCN(C)CC4)sc3C)ccc21 [Compound 75]
5 to 25 | > 25 | Cc1ccccc1C(=O)n1ccc2cc(-c3cccc(NC(=O)Cc4ccccc4)n3)cnc21 [Compound 76]
5 to 25 | 5 to 25 | Cc1ccccc1C(=O)N1CCc2cc(-c3nc(NC(=O)CN4CCOCC4)sc3C)ccc21 [Compound 77]
> 25 | > 25 | O=C(Cc1ccccc1)Nc1cccc(-c2ccc(N3CCOCC3)cc2)n1 [Compound 78]
< 5 | 5 to 25 | Cc1ccccc1C(=O)N1CCc2cc(-c3nc(NC(=O)CC4CCCCC4)sc3C)ccc21 [Compound 79]
> 25 | > 25 | Nc1ccc(-c2cccc(NC(=O)Cc3ccccc3)n2)cc1 [Compound 80, N-(6-(4-aminophenyl)pyridin-2-yl)-2-phenylacetamide]
5 to 25 | 5 to 25 | O=C(Nc1ncc(CN2CCOCC2)s1)c1ccc(-c2cccc([N+](=O)[O-])c2)o1 [Compound 81]
5 to 25 | > 25 | O=C(Nc1ncc(-c2ccccc2)s1)c1ccc(-c2cccc([N+](=O)[O-])c2)o1 [Compound 82]
> 25 | > 25 | O=C(Nc1ncc(Cc2ccc(C(F)(F)F)cc2)s1)c1ccc(-c2ccccc2)s1 [Compound 83]
5 to 25 | 5 to 25 | Cc1ccccc1C(=O)N1CCc2cc(-c3nc(NC(=O)CC4CCOCC4)sc3C)ccc21 [Compound 84]
5 to 25 | > 25 | O=C(Nc1nc(Cc2ccccc2)cs1)c1ccc(-c2cccc([N+](=O)[O-])c2)o1 [Compound 85]

IC50 [1] [µM] | IC50 [2] [µM] | SMILES
5 to 25 | 5 to 25 | O=C(Nc1ncc(Cc2ccc(C(F)(F)F)cc2)s1)c1cnc(-c2ccccc2)o1 [Compound 86]
> 25 | > 25 | O=C(Nc1ncc(CN2CCCCC2)s1)c1ccc(-c2cccc([N+](=O)[O-])c2)o1 [Compound 87]
5 to 25 | > 25 | O=C(Cc1ccccc1)Nc1cccc(-c2cnc3[nH]ccc3c2)n1 [Compound 88, N-(6-(1H-pyrrolo[2,3-b]pyridin-5-yl)pyridin-2-yl)-2-phenylacetamide]
> 25 | > 25 | O=C(O)c1ccc(CN2CCc3ccccc3C2)cc1 [Compound 90, 4-((3,4-dihydroisoquinolin-2(1H)-yl)methyl)benzoic acid]
5 to 25 | > 25 | O=C(Cc1ccccc1)Nc1cccc(-c2ccc3[nH]ncc3c2)n1 [Compound 91, N-(6-(1H-indazol-5-yl)pyridin-2-yl)-2-phenylacetamide]
5 to 25 | > 25 | O=C(Cc1ccccc1)Nc1cccc(-c2ccc3[nH]c(-c4ccccc4)nc3c2)n1 [Compound 92]
5 to 25 | > 25 | Cc1ccccc1C(=O)N1CCc2cc(N3CCC(N)C3)ccc21 (stereo not shown) [Compound 93, (5-(3-aminopyrrolidin-1-yl)indolin-1-yl)(o-tolyl)methanone]
> 25 | > 25 | Cc1ccccc1C(=O)N1CCc2cc(N3CCCC(N)C3)ccc21 (stereo not shown) [Compound 94, (5-(3-aminopiperidin-1-yl)indolin-1-yl)(o-tolyl)methanone]
< 5 | 5 to 25 | Cc1ccccc1C(=O)n1ncc2cc(-c3cccc(NC(=O)Cc4ccccc4)n3)ccc21 [Compound 95]
5 to 25 | 5 to 25 | Cc1ccccc1C(=O)N1CCc2cc(N3CCC(NC(=O)Cc4ccccc4)C3)ccc21 (stereo not shown) [Compound 96]
5 to 25 | 5 to 25 | Cc1ccccc1C(=O)N1CCc2cc(N3CCCC(NC(=O)Cc4ccccc4)C3)ccc21 (stereo not shown) [Compound 97]
5 to 25 | 5 to 25 | O=C(Nc1ncc(Cc2ccc(C(F)(F)F)cc2)s1)c1ccc(Br)o1 [Compound 98]
5 to 25 | > 25 | O=C(Nc1ncc(Cc2ccc(C(F)(F)F)cc2)s1)c1cnc(-c2ccccc2)s1 [Compound 99]
5 to 25 | 5 to 25 | Cc1ccccc1C(=O)N1CCc2cc(-n3cc(NC(=O)Cc4ccccc4)cn3)ccc21 [Compound 100]
5 to 25 | 5 to 25 | Cc1ccccc1C(=O)N1CCc2cc(-c3ccc(NC(=O)Cc4ccccc4)cn3)ccc21 [Compound 101]
5 to 25 | > 25 | Cc1ccccc1C(=O)N1CCc2cc(-c3ccnc(NC(=O)Cc4ccccc4)n3)ccc21 [Compound 102]
> 25 | > 25 | O=C(NC1CCCN(Cc2ccccc2)C1)c1ccc(-c2cccc([N+](=O)[O-])c2)o1 (stereo not shown) [Compound 103]
< 5 | 5 to 25 | Cc1ccccc1C(=O)N1CCc2cc(-c3cncc(NC(=O)Cc4ccccc4)n3)ccc21 [Compound 104]
> 25 | > 25 | O=C(Cc1ccccc1)Nc1cncc(Cl)n1 [Compound 105, N-(6-chloropyrazin-2-yl)-2-phenylacetamide]
> 25 | > 25 | O=C(Cc1ccccc1)Nc1ccc(Cl)nc1 [Compound 106, N-(6-chloropyridin-3-yl)-2-phenylacetamide]
5 to 25 | > 25 | Cc1ccccc1C(=O)N1CCc2cc(Br)ccc21 [Compound 107, (5-bromoindolin-1-yl)(o-tolyl)methanone]
> 25 | > 25 | O=C(CCCc1ccccc1)Nc1ncc(Cc2ccc(C(F)(F)F)cc2)s1 [Compound 108]
5 to 25 | 5 to 25 | Cc1ccccc1C(=O)N1CCc2cc(-c3nc(NS(=O)(=O)Cc4ccccc4)sc3C)ccc21 [Compound 109]
